From US4399136A, “Pyrazolopyridazine antihypertensives” (Hoffmann-La Roche Inc., priority 1980, dated 1983) come the findings set out here.

One may read the IC50 as the concentration needed to halve the response being measured. Read a high IC50 as a need for much substance.

In this test the target is T1, angiotensin converting enzyme, extracted from rabbit lung (Oryctolagus cuniculus, UniProt P12822).
T1 construct: extracted from rabbit lung; from tissue; host or cells: rabbit lung
T1 sequence (P12822 34-1310): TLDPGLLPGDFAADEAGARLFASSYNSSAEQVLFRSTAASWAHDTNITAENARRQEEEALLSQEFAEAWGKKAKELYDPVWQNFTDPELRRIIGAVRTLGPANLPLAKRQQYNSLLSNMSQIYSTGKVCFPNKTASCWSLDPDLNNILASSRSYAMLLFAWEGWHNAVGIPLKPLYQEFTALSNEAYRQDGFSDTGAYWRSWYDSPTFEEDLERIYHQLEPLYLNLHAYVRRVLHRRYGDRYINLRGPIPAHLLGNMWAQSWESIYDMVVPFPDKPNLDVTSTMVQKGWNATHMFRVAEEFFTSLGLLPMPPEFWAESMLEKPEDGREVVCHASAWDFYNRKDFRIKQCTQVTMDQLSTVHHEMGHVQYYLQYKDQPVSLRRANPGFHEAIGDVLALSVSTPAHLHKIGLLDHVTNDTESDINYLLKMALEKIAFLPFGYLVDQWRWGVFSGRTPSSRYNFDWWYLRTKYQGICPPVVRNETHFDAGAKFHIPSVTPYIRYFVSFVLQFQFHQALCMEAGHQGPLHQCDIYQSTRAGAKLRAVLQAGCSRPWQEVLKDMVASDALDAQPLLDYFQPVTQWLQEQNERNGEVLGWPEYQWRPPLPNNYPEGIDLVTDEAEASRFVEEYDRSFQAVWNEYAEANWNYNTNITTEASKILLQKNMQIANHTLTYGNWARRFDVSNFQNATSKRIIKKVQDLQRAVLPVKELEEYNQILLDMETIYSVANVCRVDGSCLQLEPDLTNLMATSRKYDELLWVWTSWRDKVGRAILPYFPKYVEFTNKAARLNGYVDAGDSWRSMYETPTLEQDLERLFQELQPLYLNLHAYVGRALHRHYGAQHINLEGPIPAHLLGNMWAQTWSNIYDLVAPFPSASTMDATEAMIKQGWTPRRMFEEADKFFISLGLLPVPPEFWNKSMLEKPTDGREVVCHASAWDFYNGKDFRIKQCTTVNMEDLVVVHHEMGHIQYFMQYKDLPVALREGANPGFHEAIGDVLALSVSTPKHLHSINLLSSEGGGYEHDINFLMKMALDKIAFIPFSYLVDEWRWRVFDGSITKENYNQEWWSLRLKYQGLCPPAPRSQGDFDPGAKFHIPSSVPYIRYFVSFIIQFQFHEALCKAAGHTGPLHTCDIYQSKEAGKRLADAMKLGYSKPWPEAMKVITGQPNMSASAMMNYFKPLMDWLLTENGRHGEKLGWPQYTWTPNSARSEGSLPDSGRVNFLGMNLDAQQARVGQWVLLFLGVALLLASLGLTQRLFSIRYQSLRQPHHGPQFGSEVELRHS
Nature of the test: in vitro inhibition of angiotensin converting enzyme (cleavage of hippuryl-histidyl-leucine). The class given is biochemical. The note with it: hippuryl-histidyl-leucine 2 mM; rabbit lung ACE; pH 8.3; 25 minutes at 37° C. On the procedure:
The activity of the pyrazolopyridazine derivatives of formula I in inhibiting angiotensin converting enzyme in vitro can be determined by the following test.
The method used is based on the method of Cushman and Cheung (Biochem. Pharmacol., 20, 1637-1648) incorporating the modifications introduced by Hayakari et al. (Anal. Biochem., 84, 361-369). The substrate (hippuryl-histidyl-leucine, 2 mM) is incubated with angiotensin converting enzyme, extracted from rabbit lung, in the presence or absence of various concentrations of test substance in potassium phosphate buffer (pH 8.3; 100 mM) containing sodium chloride (300 mM) for 25 minutes at 37° C. (total […] 500 μl). The reaction is terminated by the addition of 3 ml of potassium phosphate buffer (pH 8.3; 200 mM) at 0° C. 2,4,6-Trichloro-s-triazine (3%) in 1.5 ml of dioxane is added and the mixture is agitated until the yellow chromophore has developed fully. The samples are then centrifuged to remove any precipitate which has formed. The yellow chromophore formed by the reaction of the 2,4,6-trichloro-s-triazine with free hippuric acid is measured spectrophotometrically at 382 nm. IC50 values are defined as the concentration of test substance which reduces by 50% the cleavage of hippurly-histidyl-leucine by angiotensin converting enzyme under the aforementioned conditions.
For `CCC1(CCS)C(=O)N2CC=CC(C(=O)O)N2C1=O` (stereo not drawn) [Compound C, 2-Ethyl-2,3,5,8-tetrahydro-2-(2-mercaptoethyl)-1,3-dioxo-1H-pyrazolo-[1,2-a]pyridazine-5-carboxylic acid], the midpoint of inhibition, the IC50, lay at 43 nM.
As for `CC1(CCS)CN2CCCC(C(=O)O)N2C1=O` (stereo not drawn) [Compound B, Hexahydro-2-(2-mercaptoethyl)-2-methyl-3-oxo-1H-pyrazolo[1,2-a]pyridazine-5-carboxylic acid], half-maximal inhibition (IC50) required 100 nM.
In the case of `CC1(CCS)C(=O)N2CCCC(C(=O)O)N2C1=O` (stereo not drawn) [Compound A, Hexahydro-2-(2-mercaptoethyl)-2-methyl-1,3-dioxo-1H-pyrazolo[1,2-a]pyridazine-5-carboxylic acid] it was 100 nM.
